≈ marks a conversion by molar mass, not a printed value.
Columns and labels:
[1] = system: E. coli; experiment: etest on agar containing the booster; type: cell-based; design: MIC (e-test): unit not given beside the values
Text: (§1) The corresponding tests are made based on the usual MIC test: the etest® (Biomerieux) strip is deposited onto the surface of a seeded agar medium in which the booster has been incorporated. This test enables solvent effect risks, that is a possible interaction with the solvent used in vitro, to be minimised.
(§2) The control corresponds to the test made without cineol. A control is made in each solvent tested: distilled water, Tween/water and DMSO. • ED control=antibiotic alone in distilled water • DMSO control=antibiotic alone in DMSO • TE control=antibiotic alone in Tween® 80

[2] = system: Staphylococcus; experiment: etest on agar containing the booster; type: cell-based; design: MIC (e-test): unit not given beside the values
Text: as §1, §2

[3] = system: MSSA 8238; settings: Balb/c, mouse, in vivo
Procedure: To Balb/c mice, is injected (Sc.) the antimicrobial product or the antimicrobial+booster mixture.
At different post-injection times, the mice are euthanised, and blood sampled, heparined and centrifuged to extract plasma thereof
Antibacterial effects are measured after 24 h incubation. The successive dilutions enable the antimicrobial effect to be determined and compared with the MIC. The efficient concentration/MIC ratio is thus determined.

[4] = system: E. coli; experiment: Double dilution test; type: cell-based
Text: (§3) The double dilution test is a MIC measurement test made on successive dilutions of the 2 products of the composition. […] The summary table expresses for each strain and for each dilution of the booster the measured antibiotic MIC.
(§4) The code enabling the results to be interpreted is the following one: no sign “^+” if the MIC is equivalent with and without booster, a sign “^+” if the value is lower with booster.

[5] = system: Staphylococcus; experiment: Double dilution test; type: cell-based; settings: strain 8148
Text: as §3, §4

[6] = system: Pasteurella; experiment: etest on agar containing the booster; type: cell-based
Text: The corresponding tests are made based on the usual MIC test: the etest® (Biomerieux) strip is deposited onto the surface of a seeded agar medium in which the booster has been incorporated.
as §2
Other e-tests are also made on Pasteurella.

MIC (e-test) ([1]; strain 8141, Cineol 4 mg/L, DMSO): 6^+
MIC (e-test) ([1]; strain 8141, Cineol 16 mg/L, DMSO): 0.1^+
MIC (e-test) ([1]; strain 8141, ED control, no cineol): 8^+
MIC (e-test) ([1]; strain 8150, Cineol 4 mg/L, DMSO): 6^+
MIC (e-test) ([1]; strain 8150, Cineol 16 mg/L, DMSO): 0.1^+
MIC (e-test) ([1]; strain 8150, ED control, no cineol): 8^+
MIC (e-test) ([1]; strain 8156, Cineol 4 mg/L, DMSO): 8^+
MIC (e-test) ([1]; strain 8156, Cineol 16 mg/L, DMSO): 8^+
MIC (e-test) ([1]; strain 8156, ED control, no cineol): 12^+
MIC (e-test) ([1]; strain ATCC25922, Cineol 4 mg/L, DMSO): 12^+
MIC (e-test) ([1]; strain ATCC25922, Cineol 16 mg/L, DMSO): 12^+
MIC (e-test) ([1]; strain ATCC25922, ED control, no cineol): 16^+
MIC (e-test) ([2]; strain 8143, Cineol 4 mg/L, DMSO): 1.5^+
MIC (e-test) ([2]; strain 8143, Cineol 16 mg/L, DMSO): 1.5^+
MIC (e-test) ([2]; strain 8143, ED control, no cineol): 2^+
MIC (e-test) ([2]; strain 8146, Cineol 4 mg/L, DMSO): 0.38^+
MIC (e-test) ([2]; strain 8146, Cineol 16 mg/L, DMSO): 0.19^+
MIC (e-test) ([2]; strain 8146, ED control, no cineol): 0.5^+
MIC (e-test) ([2]; strain 8149, Cineol 4 mg/L, DMSO): 0.5^+
MIC (e-test) ([2]; strain 8149, Cineol 16 mg/L, DMSO): 0.38^+
MIC (e-test) ([2]; strain 8149, ED control, no cineol): 1^+
MIC (e-test) ([2]; strain 8240, Cineol 4 mg/L, DMSO): 12^+
MIC (e-test) ([2]; strain 8240, Cineol 16 mg/L, DMSO): 16^+
MIC (e-test) ([2]; strain 8240, ED control, no cineol): 24^+
MIC (e-test) ([2]; strain 8241, Cineol 4 mg/L, DMSO): 8^+
MIC (e-test) ([2]; strain 8241, Cineol 16 mg/L, DMSO): 12^+
MIC (e-test) ([2]; strain 8241, ED control, no cineol): 32^+
MIC (e-test) ([2]; strain 10168, Cineol 4 mg/L, DMSO): 1^+
MIC (e-test) ([2]; strain 10168, Cineol 16 mg/L, DMSO): 1^+
MIC (e-test) ([2]; strain 10168, ED control, no cineol): 2^+
Time spent beyond the MIC [3]: <5 h
amoxicillin MIC ([4]; strain 8137, Amox, cineol 0): 8 µg/mL
amoxicillin MIC ([4]; strain 8137, cineol 10 mg/L): 0.5^+
amoxicillin MIC ([4]; strain 8137, cineol 20 mg/L): 8 µg/mL
amoxicillin MIC ([4]; strain 8137, cineol 37.5 mg/L): 8 µg/mL
amoxicillin MIC ([4]; strain 8137, cineol 75 mg/L): 8 µg/mL
amoxicillin MIC ([4]; strain 8137, cineol 150 mg/L): 8 µg/mL
amoxicillin MIC ([4]; strain 8137, cineol 300 mg/L): 8 µg/mL
amoxicillin MIC ([4]; strain 8137, cineol 600 mg/L): 8 µg/mL
amoxicillin MIC ([4]; strain 8137, cineol 2,500 mg/L): 8 µg/mL
amoxicillin MIC ([4]; strain 8137, cineol 5,000 mg/L): 8 µg/mL
amoxicillin MIC ([4]; strain 8137, cineol 25,000 mg/L): 4^+
amoxicillin MIC ([4]; strain 8137, cineol 50,000 mg/L): 0.25^+
amoxicillin MIC ([4]; strain 8137, cineol […]): 8 µg/mL
amoxicillin MIC ([4]; strain 8151, Amox, cineol 0): 8 µg/mL
amoxicillin MIC ([4]; strain 8151, cineol 10 mg/L): 0.5^+
amoxicillin MIC ([4]; strain 8151, cineol 20 mg/L): 8 µg/mL
amoxicillin MIC ([4]; strain 8151, cineol 37.5 mg/L): 8 µg/mL
amoxicillin MIC ([4]; strain 8151, cineol 75 mg/L): 8 µg/mL
amoxicillin MIC ([4]; strain 8151, cineol 150 mg/L): 8 µg/mL
amoxicillin MIC ([4]; strain 8151, cineol 300 mg/L): 8 µg/mL
amoxicillin MIC ([4]; strain 8151, cineol 600 mg/L): 8 µg/mL
amoxicillin MIC ([4]; strain 8151, cineol 2,500 mg/L): 8 µg/mL
amoxicillin MIC ([4]; strain 8151, cineol 5,000 mg/L): 8 µg/mL
amoxicillin MIC ([4]; strain 8151, cineol 10,000 mg/L): 4^+
amoxicillin MIC ([4]; strain 8151, cineol 25,000 mg/L): 4^+
amoxicillin MIC ([4]; strain 8151, cineol 50,000 mg/L): 0.25^+
amoxicillin MIC ([4]; strain 8151, cineol […]): 8 µg/mL
amoxicillin MIC ([4]; strain 8155, Amox, cineol 0): 8 µg/mL
amoxicillin MIC ([4]; strain 8155, cineol 10 mg/L): 0.5^+
amoxicillin MIC ([4]; strain 8155, cineol 20 mg/L): 8 µg/mL
amoxicillin MIC ([4]; strain 8155, cineol 37.5 mg/L): 8 µg/mL
amoxicillin MIC ([4]; strain 8155, cineol 75 mg/L): 8 µg/mL
amoxicillin MIC ([4]; strain 8155, cineol 150 mg/L): 8 µg/mL
amoxicillin MIC ([4]; strain 8155, cineol 300 mg/L): 8 µg/mL
amoxicillin MIC ([4]; strain 8155, cineol 600 mg/L): 8 µg/mL
amoxicillin MIC ([4]; strain 8155, cineol 2,500 mg/L): 8 µg/mL
amoxicillin MIC ([4]; strain 8155, cineol 5,000 mg/L): 8 µg/mL
amoxicillin MIC ([4]; strain 8155, cineol 10,000 mg/L): 8 µg/mL
amoxicillin MIC ([4]; strain 8155, cineol 25,000 mg/L): 4^
amoxicillin MIC ([4]; strain 8155, cineol 50,000 mg/L): 0.25^+
amoxicillin MIC ([4]; strain 8155, cineol […]): 8 µg/mL
amoxicillin MIC ([4]; strain 8156, Amox, cineol 0): 8 µg/mL
amoxicillin MIC ([4]; strain 8156, cineol 10 mg/L): 0.5^+
amoxicillin MIC ([4]; strain 8156, cineol 20 mg/L): 8 µg/mL
amoxicillin MIC ([4]; strain 8156, cineol 37.5 mg/L): 8 µg/mL
amoxicillin MIC ([4]; strain 8156, cineol 75 mg/L): 8 µg/mL
amoxicillin MIC ([4]; strain 8156, cineol 150 mg/L): 8 µg/mL
amoxicillin MIC ([4]; strain 8156, cineol 300 mg/L): 8 µg/mL
amoxicillin MIC ([4]; strain 8156, cineol 600 mg/L): 8 µg/mL
amoxicillin MIC ([4]; strain 8156, cineol 2,500 mg/L): 16 µg/mL
amoxicillin MIC ([4]; strain 8156, cineol 5,000 mg/L): 8 µg/mL
amoxicillin MIC ([4]; strain 8156, cineol 10,000 mg/L): 8 µg/mL
amoxicillin MIC ([4]; strain 8156, cineol 25,000 mg/L): 8^
amoxicillin MIC ([4]; strain 8156, cineol 50,000 mg/L): 4^+
amoxicillin MIC ([4]; strain 8156, cineol […]): 8 µg/mL
amoxicillin MIC ([4]; strain ATCC 25922, Amox, cineol 0): 8 µg/mL
amoxicillin MIC ([4]; strain ATCC 25922, cineol 10 mg/L): 0.5^+
amoxicillin MIC ([4]; strain ATCC 25922, cineol 20 mg/L): 8 µg/mL
amoxicillin MIC ([4]; strain ATCC 25922, cineol 37.5 mg/L): 8 µg/mL
amoxicillin MIC ([4]; strain ATCC 25922, cineol 75 mg/L): 8 µg/mL
amoxicillin MIC ([4]; strain ATCC 25922, cineol 150 mg/L): 8 µg/mL
amoxicillin MIC ([4]; strain ATCC 25922, cineol 300 mg/L): 8 µg/mL
amoxicillin MIC ([4]; strain ATCC 25922, cineol 600 mg/L): 8 µg/mL
amoxicillin MIC ([4]; strain ATCC 25922, cineol 2,500 mg/L): 16 µg/mL
amoxicillin MIC ([4]; strain ATCC 25922, cineol 5,000 mg/L): 8 µg/mL
amoxicillin MIC ([4]; strain ATCC 25922, cineol 25,000 mg/L): 4^+
amoxicillin MIC ([4]; strain ATCC 25922, cineol 50,000 mg/L): 0.06^+
amoxicillin MIC ([4]; strain ATCC 25922, cineol […]): 8 µg/mL
amoxicillin MIC ([5]; Amox, cineol 0): 8 µg/mL
amoxicillin MIC ([5]; cineol 10 mg/L): 0.5^+
amoxicillin MIC ([5]; cineol 20 mg/L): 8 µg/mL
amoxicillin MIC ([5]; cineol 37.5 mg/L): 8 µg/mL
amoxicillin MIC ([5]; cineol 75 mg/L): 8 µg/mL
amoxicillin MIC ([5]; cineol 150 mg/L): 8 µg/mL
amoxicillin MIC ([5]; cineol 300 mg/L): 8 µg/mL
amoxicillin MIC ([5]; cineol 600 mg/L): 8 µg/mL
amoxicillin MIC ([5]; cineol 2,500 mg/L): 8 µg/mL
amoxicillin MIC ([5]; cineol 5,000 mg/L): 8 µg/mL
amoxicillin MIC ([5]; cineol 10,000 mg/L): 4 µg/mL
amoxicillin MIC ([5]; cineol 25,000 mg/L): 16^
amoxicillin MIC ([5]; cineol 50,000 mg/L): 0.25^+
amoxicillin MIC ([5]; cineol […]): 8 µg/mL
MIC (e-test) ([6]; strain 14012, 5 mg cineol DMSO): 0.094 µg/mL (≈ 0.257 µM)
MIC (e-test) ([6]; strain 14012, 5 mg cineol TE): 0.094 µg/mL (≈ 0.257 µM)
MIC (e-test) ([6]; strain 14012, 5 mg cineol water): 0.094 µg/mL (≈ 0.257 µM)
MIC (e-test) ([6]; strain 14012, 10 mg cineol TE): 0.094 µg/mL (≈ 0.257 µM)
MIC (e-test) ([6]; strain 14012, 10 mg cineol water): 0.094 µg/mL (≈ 0.257 µM)
MIC (e-test) ([6]; strain 14012, DMSO control): 0.094 µg/mL (≈ 0.257 µM)
MIC (e-test) ([6]; strain 14012, ED control): 0.032 µg/mL (≈ 0.0876 µM)
MIC (e-test) ([6]; strain 14012, TE control): 0.19 µg/mL (≈ 0.52 µM)
MIC (e-test) ([6]; strain 14013, 5 mg cineol DMSO): 0.25 µg/mL (≈ 0.684 µM)
MIC (e-test) ([6]; strain 14013, 5 mg cineol TE): 0.25 µg/mL (≈ 0.684 µM)
MIC (e-test) ([6]; strain 14013, 5 mg cineol water): 0.25 µg/mL (≈ 0.684 µM)
MIC (e-test) ([6]; strain 14013, 10 mg cineol DMSO): 0.25 µg/mL (≈ 0.684 µM)
MIC (e-test) ([6]; strain 14013, 10 mg cineol water): 0.19 µg/mL (≈ 0.52 µM)
MIC (e-test) ([6]; strain 14013, DMSO control): 0.19 µg/mL (≈ 0.52 µM)
MIC (e-test) ([6]; strain 14013, ED control): 0.19 µg/mL (≈ 0.52 µM)
MIC (e-test) ([6]; strain 14013, TE control): 0.25 µg/mL (≈ 0.684 µM)
MIC (e-test) ([6]; strain 14014, 5 mg cineol DMSO): 0.094 µg/mL (≈ 0.257 µM)
MIC (e-test) ([6]; strain 14014, 5 mg cineol TE): 0.094 µg/mL (≈ 0.257 µM)
MIC (e-test) ([6]; strain 14014, 5 mg cineol water): 0.19 µg/mL (≈ 0.52 µM)
MIC (e-test) ([6]; strain 14014, 10 mg cineol TE): 0.094 µg/mL (≈ 0.257 µM)
MIC (e-test) ([6]; strain 14014, ED Control): 0.094 µg/mL (≈ 0.257 µM)
MIC (e-test) ([6]; strain 14014, TE control): 0.094 µg/mL (≈ 0.257 µM)
SMILES: CC1(C)S[C@@H]2[C@H](NC(=O)[C@H](N)c3ccc(O)cc3)C(=O)N2[C@H]1C(=O)O [Amox, amoxicillin]

From patent US10668043B2, “Potentiated antimicrobial agents” (priority 2014, dated 2020)
